Source: patent US10047104B2, “Bicyclic heterocyclyl derivatives as IRAK4 inhibitors” (Aurigene Discovery Technologies Limited, priority 2014, dated 2018)
Counter-ions that a name gives are not always drawn.

Molecular target: T1, recombinant IRAK-4 kinase (Homo sapiens, UniProt Q9NWZ3)
T1 construct: purchased Millipore, USA
T1 sequence (Q9NWZ3 1-460): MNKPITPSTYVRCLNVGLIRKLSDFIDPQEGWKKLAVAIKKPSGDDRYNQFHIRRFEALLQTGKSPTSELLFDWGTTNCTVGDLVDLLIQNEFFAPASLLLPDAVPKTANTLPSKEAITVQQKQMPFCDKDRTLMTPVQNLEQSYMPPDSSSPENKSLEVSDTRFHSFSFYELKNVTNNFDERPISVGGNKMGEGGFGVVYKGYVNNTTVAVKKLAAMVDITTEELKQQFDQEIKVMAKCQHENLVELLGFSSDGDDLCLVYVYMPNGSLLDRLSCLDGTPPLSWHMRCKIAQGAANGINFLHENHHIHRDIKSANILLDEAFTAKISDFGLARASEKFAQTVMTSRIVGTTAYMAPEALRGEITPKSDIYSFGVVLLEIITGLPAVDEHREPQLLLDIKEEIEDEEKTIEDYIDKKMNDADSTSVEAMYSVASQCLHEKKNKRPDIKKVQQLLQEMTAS
Assay: IRAK-4 Biochemical Assay (TR-FRET)
Settings: 5 ng IRAK-4 kinase, 100 nM Biotin Histone H3, 20 μM ATP, 30 minutes pre-incubation, read-out: IC50 values for IRAK4 activity
Summary of the method: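 Recombinant IRAK-4 (5 ng) pre-incubated with compound 30 min at room temperature in Tris-HCl pH 7.5 with MgCl2/MnCl2, then 100 nM biotin-histone H3 and 20 μM ATP added for 30 min. Stopped with EDTA; phospho-Ser10 read by TR-FRET (Eu-antibody/APC-streptavidin).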

| Compound | IC50 |
| --- | --- |
| Cc1cc(-c2ccc(C(=O)Nc3cc4sc(N5CCOCC5)nc4nc3N3CCCCC3)o2)ccn1 [Example 90, 5-(2-methylpyridin-4-yl)-N-(2-morpholino-5-(piperidin-1-yl)thiazolo[4,5-b]pyridin-6-yl)furan-2-carboxamide] | < 0.05 µM |
| Cn1cc(-c2cccc(C(=O)Nc3cc4sc(N5CCCCC5)nc4nc3N3CCCCC3)n2)cn1 [Example 50, N-(2,5-di(piperidin-1-yl)thiazolo[4,5-b]pyridin-6-yl)-6-(1-methyl-1H-pyrazol-4-yl)picolinamide hydrochloride] | < 0.05 µM |
| O=C(Nc1cc2oc(N3CCOCC3)nc2nc1N1CCCCC1)c1coc(-c2cccnc2O)n1 [Example 29, 2-(2-hydroxypyridin-3-yl)-N-(2-morpholino-5-(piperidin-1-yl)oxazolo[4,5-b]pyridin-6-yl)oxazole-4-carboxamide] | < 0.05 µM |
| Cc1cc(-c2nc(C(=O)Nc3cc4oc(N5CCOCC5)nc4nc3N3CCC3)co2)ccn1 [Example 110, N-(5-(azetidin-1-yl)-2-morpholinooxazolo[4,5-b]pyridin-6-yl)-2-(2-methylpyridin-4-yl)oxazole-4-carboxamide] | < 0.05 µM |
| Cc1cc(-c2ccc(C(=O)Nc3cc4oc(N5CCOCC5)nc4nc3N3CC[C@H](O)C3)s2)ccn1 [Example 108, (S)—N-(5-(3-hydroxypyrrolidin-1-yl)-2-morpholinooxazolo[4,5-b]pyridin-6-yl)-5-(2-methylpyridin-4-yl)thiophene-2-carboxamide] | > 0.1 µM |
| Cc1cc(-c2nc(C(=O)Nc3cc4oc(N5CCOCC5)nc4nc3N[C@H]3CCNC3)co2)ccn1 [Example 11, (S)-2-(2-methylpyridin-4-yl)-N-(2-morpholino-5-(pyrrolidin-3-ylamino)oxazolo[4,5-b]pyridin-6-yl)oxazole-4-carboxamide] | < 0.05 µM |
| Cc1cc(-c2ccc(C(=O)Nc3cc4sc(N5CCOCC5)nc4nc3N3CC[C@H](O)C3)o2)ccn1 [Example 82, (S)—N-(5-(3-hydroxypyrrolidin-1-yl)-2-morpholinothiazolo[4,5-b]pyridin-6-yl)-5-(2-methylpyridin-4-yl)furan-2-carboxamide] | < 0.05 µM |
| COc1ccc(-c2nc(C(=O)Nc3cc4sc(N5CCOCC5)nc4nc3N3CCCCC3)co2)cn1 [Example 57, 2-(6-methoxypyridin-3-yl)-N-(2-morpholino-5-(piperidin-1-yl)thiazolo[4,5-b]pyridin-6-yl)oxazole-4-carboxamide] | < 0.05 µM |
| Cc1cc(-c2nc(C(=O)Nc3cc4sc(N5CCOCC5)nc4nc3N3CCC[C@H](F)C3)co2)ccn1 [Example 59, (S)—N-(5-(3-fluoropiperidin-1-yl)-2-morpholinothiazolo[4,5-b]pyridin-6-yl)-2-(2-methylpyridin-4-yl)oxazole-4-carboxamide] | < 0.05 µM |
| Cc1ccc(-c2nc(C(=O)Nc3cc4sc(N5CCOCC5)nc4nc3N3CCCCC3)co2)cn1 [Example 60, 2-(6-methylpyridin-3-yl)-N-(2-morpholino-5-(piperidin-1-yl)thiazolo[4,5-b]pyridin-6-yl)oxazole-4-carboxamide] | < 0.05 µM |
| Cc1cnccc1-c1nc(C(=O)Nc2cc3sc(N4CCOCC4)nc3nc2N2CCCCC2)co1 [Example 61, 2-(3-methylpyridin-4-yl)-N-(2-morpholino-5-(piperidin-1-yl)thiazolo[4,5-b]pyridin-6-yl)oxazole-4-carboxamide] | < 0.05 µM |
| O=C(Nc1cc2sc(N3CCOCC3)nc2nc1C1CC1)c1cccc(N2CC[C@H](O)C2)n1 [Example 72, (S)—N-(5-cyclopropyl-2-morpholinothiazolo[4,5-b]pyridin-6-yl)-6-(3-hydroxypyrrolidin-1-yl)picolinamide] | < 0.05 µM |
| Cc1cc(-c2nc(C(=O)Nc3cc4sc(N5CCOCC5)nc4nc3N3CCC[C@H](N)C3)co2)ccn1 [Example 120, (S)—N-(5-(3-aminopiperidin-1-yl)-2-morpholinothiazolo[4,5-b]pyridin-6-yl)-2-(2-methylpyridin-4-yl)oxazole-4-carboxamide hydrochloride] | < 0.05 µM |
| Cc1cc(-c2nc(C(=O)Nc3cc4sc(N5CCCC(O)C5)nc4nc3N3CCC(N)CC3)co2)ccn1 (stereo not drawn) [Example 134, N-(5-(4-aminopiperidin-1-yl)-2-(3-hydroxypiperidin-1-yl)thiazolo[4,5-b]pyridin-6-yl)-2-(2-methylpyridin-4-yl)oxazole-4-carboxamide hydrochloride] | < 0.05 µM |
| Cc1cc(-c2nc(C(=O)Nc3cc4oc(N5CCOCC5)nc4nc3N3CCOCC3)co2)ccn1 [Example 24, N-(2,5-dimorpholinooxazolo[4,5-b]pyridin-6-yl)-2-(2-methylpyridin-4-yl)oxazole-4-carboxamide] | < 0.05 µM |
| CC(=O)Nc1cc(-c2nc(C(=O)Nc3cc4sc(N5CCOCC5)nc4nc3N3CCCC(O)C3)co2)ccn1 (stereo not drawn) [Example 127, 2-(2-acetamidopyridin-4-yl)-N-(5-(3-hydroxypiperidin-1-yl)-2-morpholinothiazolo[4,5-b]pyridin-6-yl)oxazole-4-carboxamide] | < 0.05 µM |
| COc1ccc(-c2nc(C(=O)Nc3cc4oc(N5CCOCC5)nc4nc3N3CC[C@H](O)C3)co2)cn1 [Example 103, (S)—N-(5-(3-hydroxypyrrolidin-1-yl)-2-morpholinooxazolo[4,5-b]pyridin-6-yl)-2-(6-methoxypyridin-3-yl)oxazole-4-carboxamide] | > 0.1 µM |
| COc1ccc(-c2nc(C(=O)Nc3cc4oc(N5CCCCC5)nc4nc3N3CCCCC3)co2)cn1 [Example 26, N-(2,5-di(piperidin-1-yl)oxazolo[4,5-b]pyridin-6-yl)-2-(6-methoxypyridin-3-yl)oxazole-4-carboxamide] | < 0.05 µM |
| Cc1cc(-c2nc(C(=O)Nc3cc4sc(N5CCOCC5)nc4nc3N3CC[C@H](O)C3)co2)ccn1 [Example 71, (S)—N-(5-(3-hydroxypyrrolidin-1-yl)-2-morpholinothiazolo[4,5-b]pyridin-6-yl)-2-(2-methylpyridin-4-yl)oxazole-4-carboxamide] | < 0.05 µM |
| Cc1cc(-c2nc(C(=O)Nc3cc4sc(N5CCOCC5)nc4nc3N3CCC[C@@H](O)C3)co2)ccn1 [Example 94, (R)—N-(5-(3-hydroxypiperidin-1-yl)-2-morpholinothiazolo[4,5-b]pyridin-6-yl)-2-(2-methylpyridin-4-yl)oxazole-4-carboxamide] | < 0.05 µM |
| Cn1cc(-c2cccc(C(=O)Nc3cc4sc(N5CCOCC5)nc4nc3N3CCCCC3)n2)cn1 [Example 51, 6-(1-methyl-1H-pyrazol-4-yl)-N-(2-morpholino-5-(piperidin-1-yl)thiazolo[4,5-b]pyridin-6-yl)picolinamide] | < 0.05 µM |
| Cc1cc(-c2nc(C(=O)Nc3cc4oc(N5CCOCC5)nc4nc3N3CCCC3)co2)ccn1 [Example 112, 2-(2-methylpyridin-4-yl)-N-(2-morpholino-5-(pyrrolidin-1-yl)oxazolo[4,5-b]pyridin-6-yl)oxazole-4-carboxamide] | > 0.1 µM |
| O=C(Nc1cc2sc(N3CCCCC3)nc2nc1N1CCCCC1)c1cccc(-c2cn[nH]c2)n1 [Example 22, N-(2,5-di(piperidin-1-yl)thiazolo[4,5-b]pyridin-6-yl)-6-(1H-pyrazol-4-yl)picolinamide] | < 0.05 µM |
| Cc1cc(-c2nc(C(=O)Nc3cc4sc(N5CCOCC5)nc4nc3N3CCC3)co2)ccn1 [Example 93, N-(5-(azetidin-1-yl)-2-morpholinothiazolo[4,5-b]pyridin-6-yl)-2-(2-methylpyridin-4-yl)oxazole-4-carboxamide] | < 0.05 µM |
| Cc1cc(-c2nc(C(=O)Nc3cc4sc(N5CCOCC5)nc4nc3N3CC(O)C3)co2)ccn1 [Example 80, N-(5-(3-hydroxyazetidin-1-yl)-2-morpholinothiazolo[4,5-b]pyridin-6-yl)-2-(2-methylpyridin-4-yl)oxazole-4-carboxamide] | < 0.05 µM |
| Cc1cc(-c2nc(C(=O)Nc3cc4sc(N5CCOCC5)nc4nc3N3CCCC3)co2)ccn1 [Example 89, 2-(2-methylpyridin-4-yl)-N-(2-morpholino-5-(pyrrolidin-1-yl)thiazolo[4,5-b]pyridin-6-yl)oxazole-4-carboxamide] | < 0.05 µM |
| Cc1cc(-c2nc(C(=O)Nc3cc4oc(N5CCCCC5)nc4nc3N3CCC3)co2)ccn1 [Example 109, N-(5-(azetidin-1-yl)-2-(piperidin-1-yl)oxazolo[4,5-b]pyridin-6-yl)-2-(2-methylpyridin-4-yl)oxazole-4-carboxamide] | > 0.1 µM |
| Cc1ccc(-c2nc(C(=O)Nc3cc4oc(N5CCCCC5)nc4nc3N3CCCCC3)co2)cn1 [Example 37, N-(2,5-di(piperidin-1-yl)oxazolo[4,5-b]pyridin-6-yl)-2-(6-methylpyridin-3-yl)oxazole-4-carboxamide] | < 0.05 µM |
| O=C(Nc1cnc2nc(N3CCOCC3)sc2c1)c1cccc(-c2cn[nH]c2)n1 [Example 17, N-(2-morpholinothiazolo[4,5-b]pyridin-6-yl)-6-(1H-pyrazol-4-yl)picolinamide] | > 0.1 µM |
| Cc1cc(-c2ccc(C(=O)Nc3cc4sc(N5CCOCC5)nc4nc3N3CCCC(F)C3)o2)ccn1 (stereo not drawn) [Example 102, N-(5-(3-fluoropiperidin-1-yl)-2-morpholinothiazolo[4,5-b]pyridin-6-yl)-5-(2-methylpyridin-4-yl)furan-2-carboxamide] | < 0.05 µM |
